For 27 compounds, EC50 and CC50 results are on record in patent US8729089B2 (Gilead Sciences, Inc., priority 2006, dated 2014).

Bounds are passed on as bounds.

Series [1] deals with HCV replicon in human hepatoma Huh-7 cell line. Put plainly: Anti-HCV replicon assay (EC50, luciferase). It counts as cell-based. The settings on record: Hepatitis C virus, Huh-7, 72 h. An outline of the steps: (§1)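 Huh-7 cells carrying an HCV replicon (6000/well) exposed to 3-fold serial compound dilutions for 3 days at 37 °C, final DMSO 0.5% where used. EC50 read as replicon luciferase luminescence after cell lysis; CC50 from CellTiter-Glo luminescence after 10 min at room temperature.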
For orientation: Replicon systems follow genome replication, usually without infectious particles.

Series [2] is described as follows: CC50 assay (CellTiter-Glo) in Huh-7 HCV replicon cells. It counts as cell-based, human. Particulars: human, 3 days incubation, CellTiter-Glo readout. A digest of the protocol:
as §1
For orientation: Cellular ATP, detected with luciferase, serves as a proxy for viable cell number.

Consider `N[C@@H](CO)C(=O)Nc1ccc(-c2ccc3nc(NCc4ccc(S(N)(=O)=O)cc4)nc(NC4CC4)c3n2)cc1` [Example 182, 2-Amino-N-{4-[4-cyclopropylamino-2-(4-sulfamoyl-benzylamino)-pyrido[3,2-d]pyrimidin-6-yl]-phenyl}-3-hydroxy-propionamide], for which the EC50 (as a rule, the midpoint of the concentration-response curve) in series [1] was less than 0.1 µM. Moreover, the CC50 (in general, the concentration at which the toxic effect on the cells reaches its halfway point) at 3 days in series [2] lay in the range of 5 to 25 µM.

`CC(C)(C)OC(=O)N1CC[C@@H](NS(=O)(=O)c2cc(-c3ccc4nc(NCc5ccc(S(N)(=O)=O)cc5)nc(NCC(F)(F)F)c4n3)ccc2F)C1` [Example 205, 3-{2-Fluoro-5-[2-(4-sulfamoyl-benzylamino)-4-(2,2,2-trifluoro-ethylamino)-pyrido[3,2-d]pyrimidin-6-yl]-benzenesulfonylamino}-pyrrolidine-1-carboxylic acid tert-butyl ester] came in with an EC50 in series [1] of less than 0.1 µM. Besides, the CC50 at 3 days in series [2] was less than 5 µM.

The compound `COCCNc1nc(NCc2ccc(F)cc2)nc2ccc(-c3ccc(F)cc3)nc12` [Example 34, N2-(4-Fluoro-benzyl)-6-(4-fluoro-phenyl)-N4-(2-methoxy-ethyl)-pyrido[3,2-d]pyrimidine-2,4-diamine] had an EC50 in series [1] of less than 0.1 µM. In series [2], this compound returned a CC50 at 3 days of less than 5 µM.

As to `CCOc1nc(NCc2ccc(F)cc2)nc2ccc(-c3ccc(NC(=O)CN)cc3)nc12` [Example 70, 2-Amino-N-{4-[4-ethoxy-2-(4-fluoro-benzylamino)-pyrido[3,2-d]pyrimidin-6-yl]-phenyl}-acetamide], the EC50 in series [1] is less than 0.1 µM. Further, the CC50 at 3 days in series [2] was less than 5 µM.

Take `O=C1C(O)CCN1c1ccc(-c2ccc3nc(NCc4ccc(F)cc4)nc(NCC(F)(F)F)c3n2)cc1` (stereo not drawn) [Example 275, 1-{4-[2-(4-Fluoro-benzylamino)-4-(2,2,2-trifluoro-ethylamino)-pyrido[3,2-d]pyrimidin-6-yl]-phenyl}-3-hydroxy-pyrrolidin-2-one]: the EC50 in series [1] is less than 0.1 µM. For the same compound, the CC50 at 3 days in series [2] is less than 5 µM.

Turning to `NS(=O)(=O)c1ccc(CNc2nc(NC3CC3)c3nc(-c4ccc(F)cc4)ccc3n2)cc1` [Example 296, 4-{[4-Cyclopropylamino-6-(4-fluoro-phenyl)-pyrido[3,2-d]pyrimidin-2-ylamino]-methyl}-benzenesulfonamide], the EC50 in series [1] is less than 0.1 µM. For the same compound, in series [2], the CC50 at 3 days is more than 25 µM.

In the case of `CC(Nc1nc(NCC(F)(F)F)c2nc(-c3ccc(F)cc3)ccc2n1)c1ccc(S(N)(=O)=O)cc1` (stereo not drawn) [Example 249, 4-{1-[6-(4-Fluoro-phenyl)-4-(2,2,2-trifluoro-ethylamino)-pyrido[3,2-d]pyrimidin-2-ylamino]-ethyl}-benzenesulfonamide], the EC50 in series [1] was less than 0.1 µM. The CC50 at 3 days in series [2] is less than 5 µM.

Consider `CCOc1nc(NCc2c(F)cc(Cl)cc2F)nc2ccc(-c3ccc(F)cc3)nc12` [Example 37, (4-Chloro-2,6-difluoro-benzyl)-[4-ethoxy-6-(4-fluoro-phenyl)-pyrido[3,2-d]pyrimidin-2-yl]-amine], for which the EC50 in series [1] is less than 0.1 µM. The compound further gave a CC50 at 3 days in series [2] of 5 to 25 µM.

As to `CN(CCS(C)(=O)=O)c1nc(NCc2ccc(F)cc2)nc2ccc(-c3ccc(NC(=O)C4(O)CC4)cc3)nc12` [Example 281, 1-Hydroxy-cyclopropanecarboxylic acid (4-{2-(4-fluoro-benzylamino)-4-[(2-methanesulfonyl-ethyl)-methyl-amino]-pyrido[3,2-d]pyrimidin-6-yl}-phenyl)-amide], the EC50 in series [1] is less than 0.1 µM. For the same compound, the CC50 at 3 days in series [2] fell in the range of 5 to 25 µM.

As for `CCOc1nc(NCc2ccc(S(N)(=O)=O)cc2)nc2ccc(-c3ccc(C(=O)NC(C)(C)CN4CCCC4)cc3)nc12` [Example 142, 4-{[4-Ethoxy-6-(4-(N-(2-(pyrrolidin-1-yl)methyl-2-propyl)-carbamoyl)phenyl)-pyrido[3,2-d]pyrimidin-2-ylamino]-methyl}-benzenesulfonamide], in series [1], the EC50 was less than 0.1 µM. Further, the CC50 at 3 days in series [2] was less than 5 µM.

In the case of `CCOc1nc(NCc2ccc(F)cc2)nc2ccc(-c3ccc(F)c(S(N)(=O)=O)c3)nc12` [Example 68, 5-[4-Ethoxy-2-(4-fluoro-benzylamino)-pyrido[3,2-d]pyrimidin-6-yl]-2-fluoro-benzenesulfonamide], in series [1], the EC50 is less than 0.1 µM. This compound also showed a CC50 at 3 days in series [2] of 5 to 25 µM.

For `Nc1ncc(-c2ccc3nc(NCc4ccc(S(N)(=O)=O)cc4)nc(NCC(F)(F)F)c3n2)s1` [Example 188, 4-{[6-(2-Amino-thiazol-5-yl)-4-(2,2,2-trifluoro-ethylamino)-pyrido[3,2-d]pyrimidin-2-ylamino]-methyl}-benzenesulfonamide], the EC50 in series [1] was less than 0.1 µM. This compound displayed a CC50 at 3 days in series [2] of 5 to 25 µM.

Compound `CCOc1nc(NCc2ccc(NS(C)(=O)=O)cc2)nc2ccc(-c3ccc(F)cc3)nc12` [Example 271, N-(4-{[4-Ethoxy-6-(4-fluoro-phenyl)-pyrido[3,2-d]pyrimidin-2-ylamino]-methyl}-phenyl)-methanesulfonamide] had an EC50 in series [1] of less than 0.1 µM. The compound further yielded a CC50 at 3 days in series [2] of 5 to 25 µM.

In series [1], `Fc1ccc(CNc2nc(N[C@@H]3CCOC3)c3nc(-c4ccc(F)cc4)ccc3n2)cc1` [Example 298, N2-(4-Fluoro-benzyl)-6-(4-fluoro-phenyl)-N4-(tetrahydro-furan-3-yl)-pyrido[3,2-d]pyrimidine-2,4-diamine] registered an EC50 of less than 0.1 µM. This compound also gave a CC50 at 3 days in series [2] of 5 to 25 µM.

The compound `Fc1ccc(-c2ccc3nc(NCc4ccc(-n5cncn5)cc4)nc(NCC(F)(F)F)c3n2)cc1` [Example 251, 6-(4-Fluoro-phenyl)-N2-(4-[1,2,4]triazol-1-yl-benzyl)-N4-(2,2,2-trifluoro-ethyl)-pyrido[3,2-d]pyrimidine-2,4-diamine] had an EC50 in series [1] of less than 0.1 µM. This compound displayed a CC50 at 3 days in series [2] of more than 25 µM.

For the compound `NS(=O)(=O)c1ccc(CNc2nc(NCC(F)(F)F)c3nc(-c4ccnnc4)ccc3n2)cc1` [Example 203, 4-{[6-Pyridazin-4-yl-4-(2,2,2-trifluoro-ethylamino)-pyrido[3,2-d]pyrimidin-2-ylamino]-methyl}-benzenesulfonamide], the EC50 in series [1] was less than 0.1 µM. The CC50 at 3 days in series [2] is more than 25 µM.

For `CN(CCS(C)(=O)=O)c1nc(NCc2ccc(F)cc2)nc2ccc(-c3ccc(F)cc3)nc12` [Example 28, N2-(4-Fluoro-benzyl)-6-(4-fluoro-phenyl)-N4-(2-methanesulfonyl-ethyl)-N4-methyl-pyrido[3,2-d]pyrimidine-2,4-diamine], in series [1], the EC50 was less than 0.1 µM. Further, the CC50 at 3 days in series [2] was more than 25 µM.

Regarding `CCOc1nc(NCc2ccc(F)cc2)nc2ccc(-c3ccc(N4CCCC4=O)cc3)nc12` [Example 104, 1-{4-[4-Ethoxy-2-(4-fluoro-benzylamino)-pyrido[3,2-d]pyrimidin-6-yl]-phenyl}-pyrrolidin-2-one], in series [1], the EC50 was less than 0.1 µM. The compound also gave a CC50 at 3 days in series [2] of 5 to 25 µM.

The compound `CN(C)c1nc(NCc2ccc(F)cc2)nc2ccc(-c3ccc(F)cc3)nc12` [Example 51, 6-(4-Fluoro-phenyl)-N4-(N,N-dimethyl)-N2-(4-fluoro-benzyl)-pyrido[3,2-d]pyrimidine-2,4-diamine] had an EC50 in series [1] of 0.25 to 2 µM. In addition, in series [2], the CC50 at 3 days was more than 25 µM.

Compound `CCOc1nc(NCc2ccc(S(N)(=O)=O)cc2)nc2ccc(-c3ccc(NC(=O)[C@H](C)N)cc3)nc12` [Example 146, 2-Amino-N-{4-[4-ethoxy-2-(4-sulfamoyl-benzylamino)-pyrido[3,2-d]pyrimidin-6-yl]-phenyl}-propionamide] had an EC50 in series [1] of less than 0.1 µM. In series [2], this compound yielded a CC50 at 3 days of 5 to 25 µM.

Regarding `CCCc1nc(NCc2ccc(S(N)(=O)=O)cc2)nc2ccc(-c3ccc(F)cc3)nc12` [Example 112, 4-{[6-(4-Fluoro-phenyl)-4-propyl-pyrido[3,2-d]pyrimidin-2-ylamino]-methyl}-benzenesulfonamide], the EC50 in series [1] is less than 0.1 µM. The CC50 at 3 days in series [2] was less than 5 µM.

Consider `NS(=O)(=O)c1cc(-c2ccc3nc(NCc4ccc(F)cc4)nc(NCC(F)(F)F)c3n2)ccc1F` [Example 224, 2-Fluoro-5-[2-(4-fluoro-benzylamino)-4-(2,2,2-trifluoro-ethylamino)-pyrido[3,2-d]pyrimidin-6-yl]-benzenesulfonamide], for which the EC50 in series [1] is less than 0.1 µM. In series [2], the CC50 at 3 days is more than 25 µM.

For the compound `CCOc1nc(NCc2ccc(C(N)=O)cc2)nc2ccc(-c3ccc(F)cc3)nc12` [Example 268, 4-{[4-Ethoxy-6-(4-fluoro-phenyl)-pyrido[3,2-d]pyrimidin-2-ylamino]-methyl}-benzamide], the EC50 in series [1] is less than 0.1 µM. Moreover, in series [2], the CC50 at 3 days lay in the range of 5 to 25 µM.

Turning to `CC(C)(C)OC(=O)N1CCN(S(=O)(=O)c2cc(-c3ccc4nc(NCc5ccc(S(N)(=O)=O)cc5)nc(NCC(F)(F)F)c4n3)ccc2F)CC1` [Example 218, 4-{2-Fluoro-5-[2-(4-sulfamoyl-benzylamino)-4-(2,2,2-trifluoro-ethylamino)-pyrido[3,2-d]pyrimidin-6-yl]-benzenesulfonyl}-piperazine-1-carboxylic acid tert-butyl ester], the EC50 in series [1] was less than 0.1 µM. This compound also registered a CC50 at 3 days in series [2] of 5 to 25 µM.

Take `CCOc1nc(NCc2ccc(F)cc2)nc2ccc(-c3cccc(S(N)(=O)=O)c3)nc12` [Example 85, 3-[4-Ethoxy-2-(4-fluoro-benzylamino)-pyrido[3,2-d]pyrimidin-6-yl]-benzenesulfonamide]: in series [1], the EC50 was less than 0.1 µM. Moreover, the CC50 at 3 days in series [2] is 5 to 25 µM.

Regarding `NS(=O)(=O)c1ccc(CNc2nc(NCC(F)(F)F)c3nc(-c4ccc(O)cc4)ccc3n2)cc1` [Example 171, 4-{[6-(4-Hydroxy-phenyl)-4-(2,2,2-trifluoro-ethylamino)-pyrido[3,2-d]pyrimidin-2-ylamino]-methyl}-benzenesulfonamide], the EC50 in series [1] was less than 0.1 µM. Besides, the CC50 at 3 days in series [2] was more than 25 µM.

In series [1], `COc1nc(NCc2ccc(F)cc2)nc2ccc(-c3ccc(F)cc3)nc12` [Example 26, (4-Fluoro-benzyl)-[6-(4-fluoro-phenyl)-4-methoxy-pyrido[3,2-d]pyrimidin-2-yl]-amine] yielded an EC50 of less than 0.1 µM. The same compound had a CC50 at 3 days in series [2] of more than 25 µM.
